# Experiments:
# rats = conditions: 7 × p.o., 5 % of animals died within 10 days
# in vivo [1] = conditions: mouse, po
# [2] = test system: granulation tissue formation (cotton granuloma) in rats; assay: Retardation of the granulation tissue formation (cotton granuloma, chronic inflammation model); assay type: in vivo, rat; conditions: for ED20: po, 168 h, 7 × p.o., rats, 20% inhibition, cotton granuloma; for relative effect (Retardation of the granulation tissue formation): relative to phenyl butazone (I) = 1.0
# Protocol: (§1) The antiinflammatory action of the standard preparation and the compounds of this invention, respectively, was determined
# on a chronic inflammation model (cotton granuloma) wherein the influence of the compounds on the granulation tissue formation after subcutaneous implantation of cotton plugs in rats was studied after daily administration on 7 following days in taking pattern from the method described by Winter et al. [J. Pharmacol. exp. Therap.
# [3] = test system: ultraviolet erythema of the skin on the back of the guinea pig; assay: Retardation of the UV-Erythema (skin on the back of the guinea pig); assay type: in vivo; conditions: for ED25: Cavia porcellus, light or radiation study, po, guinea pig, retardation of 25 % 5 hours after irradiation; for relative effect (Retardation of the UV-Erythema): relative to phenyl butazone (I) = 1,0
# Protocol: as §1
# on the retardation at the ultraviolet erythema of the skin on the back of the guinea pig [Winder et al. Arch. int. Pharmacodyn. 116 (1958) 261], wherein in table 1 those doses are shown which cause a retardation of 25 % 5 hours after irradiation;
# in vivo [4] = conditions: rat, po
# [5] = test system: carrageenin edema of the rear paw of the rat; assay: Retardation of the Carrageenin Edema of the rear paw of the rat; assay type: in vivo; conditions: for ED25: po, rat, single administration, mean retardation of 25 % 3 and 5 hours after administration; for relative effect (Retardation of the Carrageenin Edema): relative to phenyl butazone (I) = 1.0
# Protocol: as §1
# on the retarding inflammation at the carrageenin edema of the rear paw of the rat [Winter et al. Proc. Soc. exp. Biol. Med. 111 (1962) 544], wherein in table 2 those doses are shown which cause a mean retardation of 25 % 3 and 5 hours after single administration of the substance to be tested;
compound,measurement,setting,value
"O=C(O)Cc1c(-c2ccc(Cl)cc2)nn(-c2ccccc2)c1Cl [II, 5-chloro-3-p-chlorophenyl-1-phenyl-pyrazole-4-acetic acid]",LD5,rats,18 mg/kg/die
same,LD50 at 240 h,in vivo [1],530 mg/kg
same,selectivity ratio,in vivo [1],353
same,ED20,[2],3 mg/kg/day
same,relative effect (Retardation of the granulation tissue formation),[2],33.3
same,ED25,[3],0.15 mg/kg
same,relative effect (Retardation of the UV-Erythema),[3],6.7
same,selectivity ratio,in vivo [4],6
same,ED25,[5],1.5 mg/kg
same,relative effect (Retardation of the Carrageenin Edema),[5],6.7
"CCCCC1C(=O)N(c2ccccc2)N(c2ccccc2)C1=O [I, phenyl butazone, reference compound]",ED20,[2],100 mg/kg/day
same,relative effect (Retardation of the granulation tissue formation),[2],1.0
same,ED25,[3],1 mg/kg
same,relative effect (Retardation of the UV-Erythema),[3],"1,0"
same,ED25,[5],10 mg/kg
same,relative effect (Retardation of the Carrageenin Edema),[5],1.0
"O=C(O)Cc1c(-c2ccccc2)nn(-c2ccccc2)c1Cl [III, 5-chloro-1,3-diphenyl-pyrazole-4-acetic acid]",LD5,rats,100 mg/kg/die
same,LD50 at 240 h,in vivo [1],1200 mg/kg
same,selectivity ratio,in vivo [1],1200
same,ED20,[2],8 mg/kg/day
same,relative effect (Retardation of the granulation tissue formation),[2],12.5
same,ED25,[3],0.25 mg/kg
same,relative effect (Retardation of the UV-Erythema),[3],4.0
same,selectivity ratio,in vivo [4],12.5
same,ED25,[5],1 mg/kg
same,relative effect (Retardation of the Carrageenin Edema),[5],10.0
"COc1ccc(-c2nn(-c3ccccc3)c(Cl)c2CC(=O)O)cc1 [IV, 5-chloro-3-p-methoxyphenyl-1-phenyl-pyrazole-4-acetic acid]",LD50 at 240 h,in vivo [1],1100 mg/kg
same,selectivity ratio,in vivo [1],91.7
same,ED25,[5],12 mg/kg
same,relative effect (Retardation of the Carrageenin Edema),[5],0.8

# Reference: patent US4042702A, “Halogen pyrazole derivatives, a method for producing these halogen pyrazole derivatives, medicaments containing and methods of using them” (Byk Gulden Lomberg Chemische Fabrik GmbH, priority 1973, dated 1977)
